This is an account of results in patent US12466821B2 (Novartis AG, priority 2018, dated 2025).

Assay [1] concerns Luciferase-encoding HCMV, AD169 strain. The assay is described as follows: CMV Luciferase assay (cellular herpesvirus replication). The assay is classed as cell-based. Conditions: Human betaherpesvirus 5, AD169, read-out: CMV-Luc Cellular EC50. On the procedure: For all viral assays, 10 mM DMSO stock compound solutions were serially diluted in DMSO at 3.16 fold dilutions in 96-well clear round bottom plates. Compounds were then diluted in assay media at 1:20 and subsequently 10 μL of these dilutions were added to cells for final compound concentrations ranging either from 0.0159 μM to 50 μM in 0.5% DMSO/assay media, or from 0.00318 to 10 μM in 0.5% DMSO/assay media.
The assay uses a Luciferase-encoding HCMV. Luciferase is expressed under the control of a late viral gene (pp28) promoter in the AD169 strain, so that expression of the reporter is dependent on viral DNA replication. Compounds that affect any stage from viral entry to DNA replication result in a change in luciferase levels.
Viral replication in the presence or absence of compounds was measured by luciferase activity according to the following procedure: Neo-natal normal human dermal fibroblast cells (NN-NHDF, from ATCC cat #201-010) were seeded at 9,000 cells/well in 96-well white solid bottom plate at 80 uL/well in assay media: 2% FBS, 4 mM GlutaMax® (Invitrogen cat #35050) in DMEM/high glucose/no glutamine/no phenol red media (Invitrogen cat #31053). After 2 hrs at 37° C., 10 uL of compound diluted in assay media or 5% DMSO (final 0.5% DMSO/well) was added and the plates returned to 37° C. One hour later, 10 uL of virus diluted in assay media was added at a final Multiplicity of infection (MOI) of 1. Plates were incubated at 37° C. for 72 hrs. At 72 hours post-infection (hpi), plates were equilibrated to room temperature. After 25 min, 100 uL Renilla-Glo® Luciferase Assay Reagent (Promega cat # E2750) was added to each well and incubated for 10 min. Plates were covered to protect from light. Luminescence was measured on the PHERAstar FS®.
The following controls were included in the data analysis: No virus, no compound (0.5% DMSO)=IC (maximal inhibitory control); Virus, no compound (0.5% DMSO)=NC (neutral control). Data were analyzed using an internal Novartis software (Helios). The means of the controls (NC, IC) were used to normalize the results to a % scale using the formula: % Control=100−(100*(Sample value−NC)/(IC−NC)).
For each compound, the software derived an EC50 using a 4-parameter logistical model.

Assay [2] deals with human HSV DNA polymerase UL30 (Human herpesvirus 1 (strain 17) (HHV-1) (Human herpes simplex virus 1), UniProt P04293). The assay is described as follows: HSV polymerase biochemical assay (molecular beacon-based). The procedure:
(§1) Both human CMV DNA polymerase UL54 and human HSV DNA polymerase UL30 were produced as N-terminal MBP fusion of the full length, wild type recombinant proteins in order to enhance soluble expression in insect cell expression system. The proteins were expressed in sf9 insect cells via baculovirus transduction and cells were harvested after 48 hours. The soluble proteins were purified using the standard Ni-IMAC purification strategy via the N-terminal hexa-Histidine tag, followed by heparin affinity chromatography. Both of the final MBP fusion proteins were more than 90% pure and the yield of UL54 was up to 1.8 mg per liter culture while UL30 was up to 15 mg per liter culture. All purification steps were performed on ice, with buffers chilled on ice and FPLC fraction collectors set at 6° C. […] UL30 protein was stored in buffer containing 20 mM HEPES, pH7.0, 420 mM NaCl, 20% glycerol, 6 mM Imidazole, and 0.8 mM DTT at−80° C.
(§2) DNA polymerase activity was measured using a molecular beacon-based assay, as described in Ma et. al.
(§3) 100 pM CMV polymerase or 625 pM HSV polymerase was added to a buffer containing 20 mM Tris, pH=7.5, 100 mM NaCl, 10 mM MgCl2, 0.01% Tween-20, 0.5 mM EDTA, 10% Sucrose and 1 mM DTT. The inhibitor was pre-incubated with the polymerase for 30 minutes at room temperature. Reactions were initiated by the addition of a mixture containing 1.25 uM dATP, 1.25 uM dCTP, 1.25 uM dTTP, 1.25 uM dGTP, 200 nM Primer B (5′-GAC GGG AAG-3′5′-GAC GGG AAG-3′) and 100 nM molecular beacon (5′-5,6-FAM-CCTCTCCGTGTCTTGTACTTCCCGTCAGAGAGG-BHQ1-3′). For human CMV polymerase the reactions were incubated for 60 minutes at room temperature. For HSV polymerase the reactions were incubated for 20 minutes at room temperature. The reactions were then read on a Perkin-Elmer EnVision 2101 reader (fluorescence) using an excitation of 480 nm and emission of 535 nm. 1050s were determined using an internal Novartis software (Helios).
as §3, with “nm.” for “nm. 1050s were determined using an internal Novartis software (Helios).”

For assay [3], the target named is human CMV DNA polymerase UL54 (Human cytomegalovirus (strain AD169) (HHV-5) (Human herpesvirus 5), UniProt P08546). The experiment in a line: CMV polymerase biochemical assay (molecular beacon-based). The procedure: as §1, §2, §3
as §3, with “nm.” for “nm. 1050s were determined using an internal Novartis software (Helios).”

As usually defined, the EC50 is the concentration that produces a half-maximal response. A word on the IC50: it is the concentration needed to halve the response being measured.

Regarding `CC(C)(c1nnn[nH]1)S(=O)(=O)C1(CN2CCn3c(ccc(C(=O)NCc4ccc(Cl)cc4)c3=O)C2=O)CC1` [Example 186, 2-((1-((2-(1H-tetrazol-5-yl)propan-2-yl)sulfonyl)cyclopropyl)methyl)-N-(4-chlorobenzyl)-1,6-dioxo-1,3,4,6-tetrahydro-2H-pyrido[1,2-a]pyrazine-7-carboxamide], the EC50 in assay [1] is 6660 nM. The IC50 in assay [2] was determined as 20.5 nM; in assay [3] it was 1.2 nM.

Take `CN(C)S(=O)(=O)CCN1CCn2c(ccc(C(=O)NCc3ccc(Cl)cc3)c2=O)C1=O` [Example 71, N-(4-chlorobenzyl)-2-(2-(N,N-dimethylsulfamoyl)ethyl)-1,6-dioxo-2,3,4,6-tetrahydro-1H-pyrido[1,2-a]pyrazine-7-carboxamide]: the EC50 in assay [1] is 3050 nM. For the same compound, the IC50 in assay [2] came to 2780 nM; in assay [3], 347 nM.

Regarding `CS(=O)(=O)CCCN1CCn2c(c(C(F)F)cc(C(=O)NCc3ccc(Cl)cc3)c2=O)C1=O` [Example 145], the EC50 in assay [1] is 30200 nM. The IC50 in assay [2] was 6820 nM; in assay [3] it was 1410 nM.

With `CS(=O)(=O)N1CCC1CN1CCn2c(ccc(C(=O)NCc3ccc(Cl)cc3)c2=O)C1=O` (stereo not drawn) [Example 66], the EC50 in assay [1] was determined as 1520 nM. Moreover, the IC50 was 1180 nM in assay [2] and 112 nM in assay [3].

Consider `N#Cc1ccc(CNC(=O)c2ccc3n(c2=O)CCN(CC2(S(=O)(=O)C4CNC4)CC2)C3=O)cc1F` [Example 16, 2-((1-(azetidin-3-ylsulfonyl)cyclopropyl)methyl)-N-(4-cyano-3-fluorobenzyl)-1,6-dioxo-2,3,4,6-tetrahydro-1H-pyrido[1,2-a]pyrazine-7-carboxamide], for which the EC50 in assay [1] amounted to 3420 nM. Further, the IC50 in assay [2] was determined as 285 nM; in assay [3], 6.1 nM.

For `N#Cc1ccc(CNC(=O)c2ccc3n(c2=O)CCN(CC2(S(=O)(=O)C4CCC4)CC2)C3=O)cc1` [Example 79-1], the EC50 in assay [1] was determined as 33.7 nM. The IC50 in assay [2] is 33.4 nM; in assay [3], 1.3 nM.

Consider `O=C(NCc1ccc(Cl)cc1)c1ccc2n(c1=O)CCN(CC1(N3CCOCC3=O)CC1)C2=O` [Example 203], for which the EC50 in assay [1] amounted to 10000 nM. Further, the half-inhibitory concentration (IC50) in assay [2] was determined as 12200 nM; in assay [3], 410 nM.

Consider `COc1cc(CNC(=O)c2ccc3n(c2=O)CCN(CC2(S(=O)(=O)C4CC4)CC2)C3=O)ccc1Cl` [Example 3-5], for which, in assay [1], the EC50 amounted to 211 nM. The IC50 amounted to 117 nM in assay [2] and 2 nM in assay [3].

Take `CS(=O)(=O)C1(CN2CCn3c(ccc(C(=O)NCc4ccc(Cl)cc4)c3=O)C2=O)CC1` [Example 48]: the EC50 in assay [1] amounted to 33.3 nM. Also, the IC50 in assay [2] was determined as 51.3 nM; in assay [3], 3 nM.

`N#Cc1ccc(CNC(=O)c2ccc3n(c2=O)CCN(CC2(N4CCOC4=O)CC2)C3=O)cc1` [Example 89-2]: the EC50 in assay [1] turned out to be 3330 nM. Besides, the results for the IC50 in assay [2] and in assay [3] were 2520 nM and 174 nM, respectively.

Turning to `C[S@+]([O-])C1(CN2CCn3c(ccc(C(=O)NCc4ccc(C#N)cc4)c3=O)C2=O)CC1` [Example 68-3], the EC50 in assay [1] was found to be 7560 nM. Also, the IC50 turned out to be 9190 nM in assay [2] and 198 nM in assay [3].

`CC(C)S(=O)(=O)C1(CN2CCn3c(ccc(C(=O)NCc4ccc(Cl)cc4)c3=O)C2=O)CC1` [Example 31]: the EC50 in assay [1] came to 12.4 nM. Moreover, the IC50 was 30.6 nM in assay [2] and 0.9 nM in assay [3].

Turning to `O=C(NCc1ccc(Cl)cc1)c1ccc2n(c1=O)CCN(CCN1CCCC1=O)C2=O` [Example 56], the EC50 in assay [1] stood at 3830 nM. In addition, the IC50 is 4760 nM in assay [2] and 312 nM in assay [3].

Consider `C[S+]([O-])C1(CN2CCn3c(ccc(C(=O)NCc4ccc(Cl)cc4)c3=O)C2=O)CC1` (stereo not drawn) [Example 67-1, N-(4-chlorobenzyl)-2-((1-(methylsulfinyl)cyclopropyl)methyl)-1,6-dioxo-2,3,4,6-tetrahydro-1H-pyrido[1,2-a]pyrazine-7-carboxamide], for which, in assay [1], the EC50 is 868 nM. Further, the values for the IC50 in assay [2] and in assay [3] were 1780 nM and 57.3 nM, respectively.

In the case of `O=C(NCc1ccc(Cl)cc1)c1ccc2n(c1=O)CCN(CC1(S(=O)(=O)CC3(C(F)(F)F)CC3)CC1)C2=O` [Example 104-1], in assay [1], the EC50 was 639 nM. The IC50 in assay [2] was found to be 185 nM; in assay [3] it was 18.6 nM.

For `N#Cc1ccc(CNC(=O)c2ccc3n(c2=O)CCN(CC2(S(=O)(=O)C4CC4(F)F)CC2)C3=O)cc1F` (stereo not drawn) [Example 98-2], in assay [1], the EC50 stood at 41 nM. Further, the IC50 in assay [2] is 57.6 nM; in assay [3] it was 1.2 nM.

`COC1(S(=O)(=O)C2(CN3CCn4c(ccc(C(=O)NCc5ccc(C#N)c(F)c5)c4=O)C3=O)CC2)CC1` [Example 190]: in assay [1], the EC50 is 47.8 nM. Moreover, the IC50 was 66.5 nM in assay [2] and 1.4 nM in assay [3].

As for `CC(C)(CN)S(=O)(=O)C1(CN2CCn3c(ccc(C(=O)NCc4ccc(C#N)cc4)c3=O)C2=O)CC1` [Example 184], in assay [1], the EC50 turned out to be 31.6 nM. In addition, the IC50 in assay [2] worked out at 60.3 nM; in assay [3], 3.9 nM.

`CS(=O)(=O)C1(CN2CCn3c(ccc(C(=O)NCC4CCC(F)(F)CC4)c3=O)C2=O)CC1` [Example 43]: the concentration for a half-maximal effect (EC50) in assay [1] worked out at 6420 nM. In addition, the IC50 in assay [2] was found to be 7860 nM; in assay [3], 62.5 nM.

Take `CS(=N)(=O)C1(CN2CCn3c(ccc(C(=O)NCc4ccc(Cl)cc4)c3=O)C2=O)CC1` (stereo not drawn) [Example 95, N-(4-chlorobenzyl)-2-((1-(S-methylsulfonimidoyl)cyclopropyl)methyl)-1,6-dioxo-2,3,4,6-tetrahydro-1H-pyrido[1,2-a]pyrazine-7-carboxamide]: in assay [1], the EC50 was 263 nM. The figures for the IC50 in assay [2] and in assay [3] were 722 nM and 16.6 nM, respectively.

Turning to `CS(=O)(=O)N1CCC[C@@H]1CN1CCn2c(ccc(C(=O)NCc3ccc(Cl)cc3)c2=O)C1=O` [Example 63], the EC50 in assay [1] turned out to be 12300 nM. The IC50 in assay [2] worked out at 19800 nM; in assay [3] it was 420 nM.

Consider `COC(=O)N(C)CCN1CCn2c(ccc(C(=O)NCc3ccc(Cl)cc3)c2=O)C1=O` [Example 61-1], for which the EC50 in assay [1] worked out at 5000 nM. Moreover, the IC50 stood at 10800 nM in assay [2] and 740 nM in assay [3].
